Measurements as given in article PMC10906223 (JCI Insight, 2024).
Several values for one entry are separate records, joined by “and”; a condition that tells them apart may be missing. Equal values may be shown once.

Legend:
[1] = system: murine dispersed islet cells; assay: Glucagon secretion from murine dispersed islet cells; assay type: cell-based, mouse; conditions: for Relative secretion of glucagon: one value per mouse
Protocol: Pancreata of nondiabetic C57BL/6J mice were digested using collagenase P (Roche Diagnostics, catalog 11213873001), and islets were manually picked up using a stereomicroscope (ZEISS Stemi 305). […] Isolated mouse islets or provided human islets were dispersed as described ([28]). Briefly, 100–120 islets were washed 2 times using modified HBSS, then dispersed in 600 μL Accutase (Innovative Cell Technologies, catalog AT-104) by gently pipetting up and down for 7 minutes at 37°C. […] Following refreshing of KRBH, cells were dispensed in 8 microfuge tubes (2,000 cells/tube) and treated with WCDD301, preclustered Ephrin-A5 Fc, or preclustered Fc in the presence or absence of the competitive inhibitor of EphA4 receptor, rhyncophylline ([60]) (MilliporeSigma, catalog SML2345). In the presence or absence of these effectors, secretion assay was performed sequentially as shown in Supplemental Table 5. […] Preclustering of Ephrin-A5 Fc was done by mixing Ephrin-A5 Fc or Fc alone (BioLegend, catalog 790102) with anti-Fc antibody (Invitrogen, catalog A16086) (1:10 molar ratio) 20 minutes before treatment ([62]). […] Shedding of cleaved EphA4 was measured from the cell culture medium. Experiments were performed by dispersion of 200 islets, and EphA4 levels in media were measured by EphA4 ELISA (ABclonal, catalog RK06572).

[2] = system: isolated islets of donors with T1D; assay: Glucagon secretion from isolated islets of donors with T1D; assay type: cell-based, human; conditions: for Secretion of glucagon: isolated islets, T1D donors, one value per donor, Figure 2G
Protocol: (§1) The Integrated Islet Distribution Program provided us human donor islets with their characteristics (Supplemental Table 6). Islets were centrifuged at 500g for 3 minutes, resuspended in CMRL 1066 medium (Gibco, catalog 1150-037) containing 11 mM glucose, and rested in an incubator overnight.
(§2) For the hormone secretion assay, islets or dispersed islet cells were adapted in KRBH buffer containing 11 mM glucose for 1 hour. Then, after 2 washes in HBSS containing 11 mM glucose, islets or cells were treated in the following sequential order in the presence or absence of WCDD301: incubation in KRBH (1 mM glucose, 30 minutes) followed by medium collection, incubation in KRBH (11 mM glucose, 30 minutes) followed by medium collection.

[3] = system: isolated islets of donors with T1D; assay: Insulin secretion from isolated islets of donors with T1D; assay type: cell-based, human; conditions: for Secretion of insulin: isolated islets, T1D donors, one value per donor, Figure 2I;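 for Secretion of insulin: insulin concentration in collected medium by Lumit immunoassay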
Protocol: as §1, §2

[4] = Pharmacokinetics in CD-1 mice, subcutaneous or intravenous; assay type: in vivo, mouse; conditions: for Plasma concentration (Supplemental Figure 5A) / Plasma concentration (Supplemental Figure 5B): individual mice M1-M3, route not given
Protocol: CD-1 mice were injected with WCDD301 subcutaneously (1 mg/kg, n = 3) or intravenously (1 mg/kg, n = 3), and blood was collected from saphenous vein directly into K2-EDTA–containing microcentrifuge tubes at 5, 10, and 15 minutes postdosing. An aliquot of 20 μL plasma was deproteinized using 200 μL of internal standard solution (100 ng/mL of labetalol and tolbutamide in acetonitrile), incubated for 10 minutes at RT, and centrifuged at 1,800g for 10 minutes at 4°C. Following 1:1 dilution of the supernatant with deionized water, 1 μL of the diluted sample was used for LC-MS/MS analysis (TripleQuad 6500, column: ACQUITY UPLC BEH C18 2.1 × 50 mm, 1.7 μm; flow rate: 0.6 mL/min, retention time: 1.60/1.78 WCDD301/labetalol).

[5] = system: diabetic NOD mice; assay: Insulin tolerance test in NOD mice; assay type: in vivo, mouse; conditions: WCDD301 dosing
Excerpt: Following a 4-hour fast, nondiabetic placebo-treated (n = 4), diabetic placebo-treated (n = 4), and diabetic WCDD301-treated (n = 4) NOD female mice were intraperitoneally injected with insulin (Humulin-R; 0.75 U/kg, Eli Lilly and Company). […]

[6] = system: diabetic NOD mice; assay: Daily food intake in NOD mice; assay type: in vivo, mouse; set-up: Daily food intake (Figure 7E): unit not given here; conditions: for Daily food intake (Figure 7E): Diabetic, WCDD301 treated
Protocol: We preweighed WCDD301 into microfuge tubes and reconstituted it using deionized water. Using a 10 μL pipette tip, we placed the calculated dose of WCDD301 (at the volume range of 1–1.5 μL) within the center of pearls. WCDD301 was placed into pearls 30–45 minutes before administration. For oral administration of pearls, we designed an applicator using a disposable plastic transfer pipette and syringe plunger lubricated with olive oil. Food intake and body weight in each experimental group (diabetic WCDD301-treated, diabetic placebo-treated, and nondiabetic placebo-treated NOD mice) were monitored daily for 4 weeks. Urine glucose was measured from individually caged NOD mice (nondiabetic placebo treated n = 2, diabetic placebo treated n = 2, and diabetic WCDD301 treated n = 4, 21–23 weeks old) with metabolic cages. Urine glucose was monitored every 24 hours for 10 days by semiquantitative measurements (P-STICKS, Millpledge Veterinary).

[7] = islets from donors with long-standing T1D

CC(=O)OCC(N)(COC(C)=O)COC(C)=O [WCDD301, 2-(acetoxymethyl)-2-aminopropane-1,3-diyl diacetate]
Effect on arginine-stimulated glucagon secretion ([1]; 1 mM and 11 mM glucose, Arg 25 mM, 301 3 µM, E 4 µg/mL, Supplemental Figure 2): its effect was suppressed | Effect on glucagon secretion ([1]; 11 mM glucose, Figure 1F): suppressed glucagon secretion | Secretion of glucagon ([1]; 301 (1.5 µM) + Rhy (2.5 µM), Glucose (1 mM), Figure 1H): 1.25 and 1.09 and 1.1 and 1.05 and 1 | Secretion of glucagon ([1]; 301 (1.5 µM) + Rhy (2.5 µM), Glucose (11 mM), Figure 1H): 0.64 and 0.69 and 0.7 and 0.75 and 0.72 | Relative secretion of glucagon ([1]; 301 (1.5 µM), Glucose (1 mM), Figure 1F): 0.81 and 0.78 and 0.75 and 0.68 and 0.86 | Relative secretion of glucagon ([1]; 301 (1.5 µM), Glucose (11 mM), Figure 1F): 0.91 and 0.85 and 1.05 and 0.78 and 1.01 | Secretion of glucagon ([1]; 301 (3 µM) + Rhy (2.5 µM), Glucose (1 mM), Figure 1H): 0.87 and 0.81 and 0.9 and 0.85 and 0.8 | Secretion of glucagon ([1]; 301 (3 µM) + Rhy (2.5 µM), Glucose (11 mM), Figure 1H): 0.41 and 0.5 and 0.46 and 0.45 and 0.48 | Relative secretion of glucagon ([1]; 301 (3 µM), Glucose (1 mM), Figure 1F): 0.89 and 0.7 and 0.75 and 0.68 | Relative secretion of glucagon ([1]; 301 (3 µM), Glucose (11 mM), Figure 1F): 0.83 and 0.75 and 0.7 and 0.8 and 0.87 | Glucagon secretion in presence of rhyncophylline ([1]; WCDD301 3 μM, Figure 1H): outcompeted the inhibitor | Effect on glucagon secretion [2, 7]: reduced glucagon secretion | Secretion of glucagon ([2]; 1 mM glucose): 39.575 and 41.23 | Secretion of glucagon ([2]; 11 mM glucose): 36.8 and 30.22 | Effect on insulin secretion [3, 7]: no effect on the minimal residual insulin secretion | Secretion of insulin ([3]; 1 mM glucose): 0.055 and 0.09 | Secretion of insulin ([3]; 11 mM glucose): 0.07 and 0.06 | Plasma concentration (Supplemental Figure 5A) ([4]; 5 min): 64.8 and 47.6 and 146 | Plasma concentration (Supplemental Figure 5B) ([4]; 5 min): 57.9 and 180 and 135 | Plasma concentration (Supplemental Figure 5A) ([4]; 10 min): 44.3 and 27.1 and 52.9 | Plasma concentration (Supplemental Figure 5B) ([4]; 10 min): 11 and 18.9 and 12.4 | Plasma concentration (Supplemental Figure 5A) ([4]; 15 min): 31.3 and 22.7 and 21.7 | Plasma concentration (Supplemental Figure 5B) ([4]; 15 min): 0 and 6.64 and 3.56 | Plasma concentration, subcutaneous compared with intravenous ([4]; CD-1 mice, 1 mg/kg, 15 minutes): increased plasma concentrations of WCDD301 at 15 minutes following subcutaneous injection | Blood glucose in insulin tolerance test, Normalize with basal (0 min) (Figure 6E) ([5]; 15 min): 0.89 and 0.91 and 0.86 and 0.88 | Blood glucose in insulin tolerance test, Normalize with basal (0 min) (Figure 6E) ([5]; 30 min): 0.67 and 0.69 and 0.65 and 0.68 | Blood glucose in insulin tolerance test, Normalize with basal (0 min) (Figure 6E) ([5]; 45 min): 0.67 and 0.74 and 0.62 and 0.66 | Blood glucose in insulin tolerance test, Normalize with basal (0 min) (Figure 6E) ([5]; 60 min): 0.71 and 0.73 and 0.77 and 0.72 | Blood glucose in insulin tolerance test, Normalize with basal (0 min) (Figure 6E) ([5]; 90 min): 0.7 and 0.8 and 0.75 and 0.96 | Blood glucose in insulin tolerance test, Normalize with basal (0 min) (Figure 6E) ([5]; 120 min): 0.89 and 0.85 and 0.9 and 0.93 | Daily food intake (Figure 7E) ([6]; Day 1): 188.5 and 161.1 and 187.4 and 162.1 | Daily food intake (Figure 7E) ([6]; Day 2): 210.5 and 168.9 and 209.3 and 170 | Daily food intake (Figure 7E) ([6]; Day 3): 184.2 and 168.9 and 183.1 and 170 | Daily food intake (Figure 7E) ([6]; Day 4): 192.5 and 167.7 | Daily food intake (Figure 7E) ([6]; Day 7): 203.2 and 168.3 and 202 and 169.4 | Daily food intake (Figure 7E) ([6]; Day 8): 200 and 184.4 and 198.8 and 185.5 | Daily food intake (Figure 7E) ([6]; Day 9): 226.3 and 184.4 and 225 and 185.5 | Daily food intake (Figure 7E) ([6]; Day 10): 211.6 and 161.9 and 188.3 and 170.8 | Daily food intake (Figure 7E) ([6]; Day 11): 185.1 and 169.8 and 210.3 and 170.8 | Daily food intake (Figure 7E) ([6]; Day 12): 193.5 and 169.8 and 184 and 169.5 | Daily food intake (Figure 7E) ([6]; Day 13): 182.7 and 168.5 and 192.3 and 160.2 | Daily food intake (Figure 7E) ([6]; Day 14): 191.2 and 159.2 and 181.6 | Daily food intake (Figure 7E) ([6]; Day 15): 204.2 and 190.1 and 190 and 170.2 | Daily food intake (Figure 7E) ([6]; Day 16): 201 and 169.2 and 203 and 186.4 | Daily food intake (Figure 7E) ([6]; Day 17): 227.4 and 185.3 and 199.8 and 186.4 | Daily food intake (Figure 7E) ([6]; Day 18): 190.4 and 185.3 and 226.1 and 163.7 | Daily food intake (Figure 7E) ([6]; Day 19): 212.6 and 162.7 and 189.2 and 171.7 | Daily food intake (Figure 7E) ([6]; Day 20): 186.1 and 170.6 and 211.4 and 171.7 | Daily food intake (Figure 7E) ([6]; Day 21): 194.4 and 170.6 and 184.9 and 170.4 | Daily food intake (Figure 7E) ([6]; Day 22): 183.6 and 169.3 and 193.3 and 161 | Daily food intake (Figure 7E) ([6]; Day 23): 192.1 and 160 and 182.5 and 192.2 | Daily food intake (Figure 7E) ([6]; Day 24): 205.2 and 191 and 171 | Daily food intake (Figure 7E) ([6]; Day 25): 202 and 170 and 204 and 187.3 | Daily food intake (Figure 7E) ([6]; Day 26): 228.6 and 186.2 and 200.8 and 187.3 | Daily food intake (Figure 7E) ([6]; Day 27): 177.9 and 175.1 and 174 and 179 | Daily food intake (Figure 7E) ([6]; Day 28): 225.9 and 175.3 and 174.1 and 226.9 | Food intake, daily monitoring ([6]; diabetic WCDD301-treated mice): phenotypes similar to nondiabetic placebo-treated mice
